{"source": "patent US20080107625A1", "about": "“Inhibitors of Hepatitis C Virus” (Bristol-Myers Squibb Company, priority 2006, published 2008)", "key": {"[1]": {"target": "T1, human neutrophil elastase (HNE) (Homo sapiens, UniProt P08246)", "T1 construct": "purchased Sigma or EMDbiosciences", "T1 sequence (P08246 30-267)": "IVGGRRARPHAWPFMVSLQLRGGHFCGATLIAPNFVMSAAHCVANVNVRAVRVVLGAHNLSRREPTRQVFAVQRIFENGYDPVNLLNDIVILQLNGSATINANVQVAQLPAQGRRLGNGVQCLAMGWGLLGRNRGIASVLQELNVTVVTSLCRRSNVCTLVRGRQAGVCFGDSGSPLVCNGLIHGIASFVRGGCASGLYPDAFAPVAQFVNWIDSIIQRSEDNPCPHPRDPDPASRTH", "test": "Specificity assay, neutrophil elastase", "type": "biochemical", "conditions": "read-out: HLE activity in the specificity assay (IC50)", "description": "The specificities of compounds of the present disclosure were determined against a variety of serine proteases: human neutrophil elastase (HNE), porcine pancreatic elastase (PPE) and human pancreatic chymotrypsin and one cysteine protease: human liver cathepsin B. In all cases, a 96-well plate format protocol using colorimetric p-nitroaniline (pNA) substrate or fluorometric Amino-Methyl-Coumarin (AMC) substrate, specific for each enzyme was used as described previously (PCT Patent Application No. WO 00/09543) with some modifications. All enzymes were purchased from Sigma or EMDbiosciences while the substrates were from Bachem.\nEach pNA assay included a 2 h enzyme-inhibitor pre-incubation at room temperature followed by addition of substrate and hydrolysis to ˜15% conversion as measured on a Spectramax Pro microplate reader. The cathepsin B assay was initiated by adding substrate to a 10 min enzyme-inhibitor pre-incubation at room temperature, and the assay plate measured immediately using the Cytofluor Series 4000. Compound concentrations varied from 100 to 0.4 μM depending on their potency.\n50 mM Tris(hydroxymethyl)aminomethane hydrochloride (Tris-HCl) pH 8, 0.5 M Sodium Sulfate (Na2SO4), 50 mM NaCl, 0.1 mM EDTA, 3% DMSO, 0.01% Tween-20 with: […]\nThe percentage of inhibition was calculated using the formula: [1−((UVinh−UVblank)/(UVctl−UVblank))]×100 […]"}, "[2]": {"system": "HCV replicon in HUH-7 cells", "test": "HCV replicon FRET assay", "type": "cell-based, HCV strain 1b", "conditions": "Hepatitis C virus, 96 h, 4 days", "from_the_text": "An HCV replicon whole cell system was established as described by Lohmann V, Korner F, Koch J, Herian U, Theilmann L, Bartenschlager R., Science 285(5424): 110-3 (1999). This system enabled us to evaluate the effects of our HCV Protease compounds on HCV RNA replication. Briefly, using the HCV strain 1b sequence described in the Lohmann paper (Assession number: AJ238799), an HCV cDNA was synthesized by Operon Technologies, Inc. (Alameda, Calif.), and the full-length replicon was then assembled in plasmid pGem9zf(+) (Promega, Madison, Wis.) using standard molecular biology techniques. […]\nThe HCV replicon FRET assay was developed to monitor the inhibitory effects of compounds described in the disclosure on HCV viral replication. […] After 4 days, cells were first assessed for cytotoxicity using alamar Blue (Trek Diagnostic Systems) for a CC50 reading. The toxicity of compound (CC50) was determined by adding 1/10th volume of alamar Blue to the media incubating the cells. After 4 hours, the fluorescence signal from each well was read, with an excitation wavelength at 530 nm and an emission wavelength of 580 nm, using the Cytofluor Series 4000 (Perspective Biosystems). […]"}}}
{"smiles": "CC(C)(C)OC(=O)N[C@H]1CN(C2CC2)CCC/C=C\\C2C[C@@]2(C(=O)NS(=O)(=O)C2CC2)NC(=O)[C@@H]2C[C@@H](Oc3ccccn3)CN2C1=O", "note": "(some centres unmarked) [Compound 1]", "values": [{"measurement": "IC50", "setting": "[1]", "value": "> 100", "unit": "µM"}, {"measurement": "EC50", "setting": "[2]", "value": 1.09, "unit": "µM"}]}
